Patent publication US20160045440A1, “FORMULATION OF AMORPHOUS CALCIUM L-5-METHYLTETRAHYDROFOLATE (L-5-MTHF-Ca)” (CHEMO RESEARCH, S.L., priority 2013, published 2016)
Values belong to the compound of their own block, whether it stands above or below them.

What was measured:
[1] = Stability of powder mixtures of amorphous calcium L-5-methylfolate with stabilizing agents (1:10) on storage; assay type: physicochemical; conditions: 5° C. for one month; ALC:stabilizing agent 1:10
Procedure: Powder mixtures of amorphous calcium L-5-methylfolate with each of the stabilizing agents disclosed in the following table were prepared. In all the cases, the mixture contained a weight amount of calcium L-5-methylfolate to stabilizing agent of 1:10.

[2] = Stability of amorphous calcium L-5-methylfolate and cysteine at weight ratios 1:0 to 1:33 on storage; assay type: physicochemical
[3] = storage time of one month at 40° C.; cited from earlier work

Assay (%) of Calcium L-5-methylfolate that remains in the mixture [1]: 91.02%
Related substances (%) D-Mefox [1]: 0.50%
Related substances (%) HO-MeTHFA [1]: 1.18%
Related substances (%) L-Mefox [1]: 4.27%
Related substances (%) TOTAL impurities [1]: 8.0%
Assay (%) ([2]; 5° C. for 1 month): 99.59%
Related substances (%) D-Mefox ([2]; 5° C. for 1 month): 0.42%
Related substances (%) HO-MeTHFA ([2]; 5° C. for 1 month): 1.80%
Related substances (%) L-Mefox ([2]; 5° C. for 1 month): 2.52%
Related substances (%) TOTAL impurities ([2]; 5° C. for 1 month): 5.59%
Assay (%) ([2]; 5° C. for 3 months): 96.39%
Related substances (%) D-Mefox ([2]; 5° C. for 3 months): 0.32%
Related substances (%) HO-MeTHFA ([2]; 5° C. for 3 months): 1.34%
Related substances (%) L-Mefox ([2]; 5° C. for 3 months): 2.74%
Related substances (%) TOTAL impurities ([2]; 5° C. for 3 months): 5.74%
Assay (%) ([2]; 25° C./60% HR for 1 month): 89.13%
Related substances (%) D-Mefox ([2]; 25° C./60% HR for 1 month): 0.71%
Related substances (%) HO-MeTHFA ([2]; 25° C./60% HR for 1 month): 1.75%
Related substances (%) L-Mefox ([2]; 25° C./60% HR for 1 month): 4.68%
Related substances (%) TOTAL impurities ([2]; 25° C./60% HR for 1 month): 9.19%
Assay (%) ([2]; 25° C./60% HR for 3 months): 84.03%
Related substances (%) D-Mefox ([2]; 25° C./60% HR for 3 months): 0.57%
Related substances (%) HO-MeTHFA ([2]; 25° C./60% HR for 3 months): 1.44%
Related substances (%) L-Mefox ([2]; 25° C./60% HR for 3 months): 6.49%
Related substances (%) TOTAL impurities ([2]; 25° C./60% HR for 3 months): 11.95%
Assay (%) ([2]; 40° C./75% HR for 1 month): 81.95%
Related substances (%) D-Mefox ([2]; 40° C./75% HR for 1 month): 0.93%
Related substances (%) HO-MeTHFA ([2]; 40° C./75% HR for 1 month): 1.84%
Related substances (%) L-Mefox ([2]; 40° C./75% HR for 1 month): 8.97%
Related substances (%) TOTAL impurities ([2]; 40° C./75% HR for 1 month): 15.57%
SMILES: CN1c2c(nc(N)[nH]c2=O)NC[C@@H]1CNc1ccc(C(=O)N[C@@H](CCC(=O)[O-])C(=O)[O-])cc1.[Ca+2] [Amorphous Calcium L-5-methylfolate (ALC), N-{4-[[((6S)-2-amino-1,4,5,6,7,8-hexahydro-5-methyl-4-oxo-6-pteridinyl)methyl]amino]benzoyl}-L-glutamic acid, calcium salt]

SMILES: CN1c2c(nc(N)[nH]c2=O)NC[C@@H]1CNc1ccc(C(=O)N[C@@H](CCC(=O)[O-])C(=O)[O-])cc1.[Ca+2] [Metafolin, Calcium L-5-methylfolate]
Metafolin that remains in the compositions obtained by granulation [3]: 60%
